Data from patent publication EP3797781A1, “USE OF EC-7072 AND SYNERGIC COMPOSITIONS THEREOF IN TREATMENT OF CHRONIC LYMPHOCYTIC LEUKEMIA” (priority 2019, dated 2021).

Experiments:
leukemia cells = test: Absolute leukemia cell number quantification by flow cytometry in PBMCs from patients with CLL; format: cell-based, human; conditions: 0 - 400 nM, 24 hours; PBMCs from patients with CLL (n = 13); dose-dependent; Figure 1A
Description: To evaluate absolute cell numbers, an equal volume of PKH26 reference microbeads (Sigma-Aldrich) was added to each sample after staining for immune subset identification. Microbeads (5x10^3) were acquired by flow cytometry and absolute numbers of each immune population within the sample were calculated. Normalized percentage values were calculated considering the control (DMSO)-treated cells as 100%.
The in vitro cytotoxic activity of EC-7072 against primary CLL cells was assessed by: • (i) incubating PBMCs isolated from patients with CLL (n = 13) following treatment with increasing concentrations of EC-7072 (0 - 400 nM) for 24 hours. Numbers of leukemia cells were evaluated by flow cytometry and normalized to their respective control (DMSO) condition for each individual patient to obtain percentage of leukemia cells (Figure 1A); • (ii) incubating PBMCs from patients with CLL (n = 10) with or without EC-7072 (100-400 nM) for 24 hours. Viability of leukemia cells was determined by cytofluorometric assessment of DiOC6(3)/PI staining and normalized to their respective control condition to obtain percentage viability (Figure 1B); • (iii) incubating PBMCs from patients with CLL (n = 10) with increasing concentrations of EC-7072 (0 - 400 nM) for 24 hours. […]

[1] = test system: MEC-1, GRANTA-519, Z-138, JVM-2, CA-46, Ramos, Raji and U266 cell lines; test: Viability of B-cell malignancy cell lines by DiOC6(3)/PI staining; format: cell-based; conditions: 500 nM, 24 hours; n = 3; Figure 5C
Description: Cell viability and apoptosis were evaluated by double-staining with the mitochondrial inner transmembrane potential (ΔΨm)-sensitive dye DiOC6(3) (3,3'-dihexyloxacarbocyanine iodide; Sigma-Aldrich) and the exclusion dye propidium iodide (PI; Immunostep), allowing identification of apoptotic [DiOC6(3)^low PI^-] and dead [PI^+] cells as per Proc. Natl. Acad. Sci. U.S.A. (2014) 111(8):3020-3025 and Methods Mol. Biol. (2016) 1419:1-16. Briefly, PBMCs were resuspended in culture medium containing 20 nM DiOC6(3) and incubated for 30 minutes at 37 °C. Then, PI (1 µg/mL) was added and cells were further incubated for 10 minutes at room temperature (RT). Cells were analyzed by flow cytometry considering DiOC6(3)^+PI^- cells as viable. In some experiments, apoptosis was evaluated by staining with Annexin V/PI. […]
Effectiveness of EC-7072 against different B-cell malignancies was assessed by; • (i) incubating primary fibroblasts from healthy donors (n = 4) and HK-2 cells from healthy human adult kidney (n = 3) following treatment with MTA (200 nM) or EC-7072 (200 nM) for 24 hours. […] Cell viability was assessed by DiOC6(3)/PI staining and normalized to control (DMSO) condition to obtain mean percentage of viable [DiOC6(3)^+] cells (Figure 5C).

For `CO[C@@H]([C@@H]1Cc2cc3cc(O[C@H]4C[C@@H](O[C@H]5C[C@@H](O)[C@H](O)[C@@H](C)O5)[C@H](O)[C@@H](C)O4)c(C)c(O)c3c(O)c2C(=O)[C@H]1O[C@H]1C[C@@H](O[C@H]2C[C@@H](O[C@H]3C[C@](C)(O)[C@H](O)[C@@H](C)O3)[C@@H](O)[C@@H](C)O2)[C@H](O)[C@@H](C)O1)[C@@H](O)C(C)=O` [EC-7072, mithramycin SK], the leukemia cell numbers (leukemia cells) was “significantly decreased” and the “surviving cell fraction of tumor cell lines derived from B-cell hematologic malignancies” value [1] was “significantly reduced the surviving cell fraction”.
